The test system of series [1] is cells of the line MDA-MB-231. As to the kind of experiment: cytotoxicity, cellular viability test MTT. The series is classed as cell-based, human. Conditions: incubation of 5 days, 10^-5M. An excerpt: The cytotoxicity of this novel class of molecules has also been determined in cells of the line MDA-MB-231 by using a cellular viability diagnostic test, MTT.
Series [2] deals with cancerous cells (MDA-MB-231, MCF7, LNCaP, HCT116, SaOs2). The experiment in a line: cell growth / proliferation of tumoral lines, incubation for 5 days. Format: cell-based. Conditions: inhibitor alone. On the procedure:
FIG. 2 describes the cell growth (in percentage of number of cells with respect to a pepstatin control) of cancerous cells (mammary […] and MCF7, prostatics LNCaP, colic HCT116, osteoblastics SaOs2) as a function of their incubation for 5 days with 1 oligomer of AMPA (4497), pepstatin alone (Peps), [Val^1]-Pepstatin bonded to arginine (4567) and two conjugate inhibitors of cathepsin D-oligomer of AMPA bonded to an arginine residue (4564 and 4463). The negative percentages correspond to a reduction in the number of cells with respect to the initial cellular seeding.
FIG. 3 describes the cell growth (in percentage of number of cells with respect to a pepstatin control) of cancerous cells (MDA-MB-231, MCF7, LNCaP, HCT116, SaOs2) as a function of their incubation for 5 days with 1 oligomer of AMPA (4497), [Val^1]-Pepstatin bonded to conjugated arginine 5 (4567) and 4 [Val^1]-Pepstatin-oligomer of AMPA bonded to a lysine or arginine residue (4461, 4562, 4463, 4564). The negative percentages correspond to a reduction in the number of cells with respect to the initial cellular seeding.
The application of these vectors within the context of a tumoral pathology is now explored. […]

Where a SMILES comes first, the peptide text is derived from it. [ ]: non-standard residue; d: D form. The star is where a group is joined. Sta = CC(C)C[C@H](N)[C@@H](O)CC(=O)O; Isovaleryl = CC(C)CC(=O)*

As to `NC(=O)CN1C(=O)[C@H](NC(=O)CN2C(=O)[C@H](NC(=O)COCCOCCNC(=S)Nc3ccc4c(c3)C(=O)OC43c4ccc(O)cc4Oc4cc(O)ccc43)CSc3ccccc32)CSc2ccccc21` [JMV4131], the “effect on cellular viability (MTT)” value in series [1] is “significant effect on cellular viability”.

Consider `CC(C)CC(=O)N[C@H](C(=O)N[C@H](C(=O)N[C@@H](CC(C)C)[C@@H](O)CC(=O)N[C@@H](C)C(=O)N[C@@H](CC(C)C)[C@@H](O)CC(=O)O)C(C)C)C(C)C` [pepstatin A] (Isovaleryl-VV[Sta]A[Sta]-OH), for which the “effect on the proliferation of tumoral cells” value in series [2] was “inactive”.

(Values after patent US9061069B2, “Use of constrained peptide mimic oligomers as vectorization agents” (CENTRE NATIONAL DE LA RECHERCHE SCIENTIFIQUE, priority 2009, dated 2015).)
